pIC50: −log10 of the molar value.
Target: HPK1 (MAP4K1) (Homo sapiens, UniProt Q92918)
Assay: FRET Assay for HPK1 (MAP4K1): one step binding assay, displacement of labeled tracer
Details: for inhibition at 1 µM: 1 μM compound; for inhibition at 1 µM / inhibition at 10 µM: FRET ratio 665/620, percent of control; for inhibition at 10 µM: 10 μM compound; for pIC50: dose response curve, nonlinear regression
Outline: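 Percent inhibition at 1.0 and 10.0 μM and IC50 by nonlinear regression were derived from loss of FRET signal versus control. The signal runs from Eu-anti-GST antibody (4 nM) bound to 10 nM HPK1 kinase to Alexa Fluor 647 Kinase Tracer 222 (20 nM), added after a 15-min on-ice compound pre-incubation. Binding then proceeded 1 h at room temperature in HEPES pH 7.5 buffer with 10 mM MgCl2, 1 mM EGTA, 0.01% Brij-35 and 3% DMSO.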

HPK1 (MAP4K1), sequence (Q92918 whole entry): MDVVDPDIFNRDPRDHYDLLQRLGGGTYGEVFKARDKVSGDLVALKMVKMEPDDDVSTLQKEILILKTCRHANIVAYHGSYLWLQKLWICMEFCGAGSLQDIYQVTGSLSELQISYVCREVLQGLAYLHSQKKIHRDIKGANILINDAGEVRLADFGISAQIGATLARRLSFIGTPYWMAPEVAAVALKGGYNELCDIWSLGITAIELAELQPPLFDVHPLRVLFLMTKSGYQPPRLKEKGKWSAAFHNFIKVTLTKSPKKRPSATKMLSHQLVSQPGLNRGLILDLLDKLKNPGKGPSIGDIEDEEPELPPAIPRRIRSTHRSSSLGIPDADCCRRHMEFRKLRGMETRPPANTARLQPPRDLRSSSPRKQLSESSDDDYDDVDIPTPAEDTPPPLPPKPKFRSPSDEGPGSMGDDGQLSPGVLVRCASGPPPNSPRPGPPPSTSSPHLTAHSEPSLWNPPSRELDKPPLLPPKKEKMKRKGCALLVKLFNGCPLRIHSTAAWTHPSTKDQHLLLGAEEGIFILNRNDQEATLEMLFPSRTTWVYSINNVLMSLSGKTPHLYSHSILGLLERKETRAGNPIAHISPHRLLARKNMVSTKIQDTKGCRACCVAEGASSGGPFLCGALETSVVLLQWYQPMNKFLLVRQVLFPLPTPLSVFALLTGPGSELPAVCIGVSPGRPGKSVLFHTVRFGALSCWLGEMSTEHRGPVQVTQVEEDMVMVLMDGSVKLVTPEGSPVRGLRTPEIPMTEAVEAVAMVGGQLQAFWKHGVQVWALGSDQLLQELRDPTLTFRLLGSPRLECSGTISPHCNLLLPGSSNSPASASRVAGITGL

inhibition at 1 µM [%]	inhibition at 10 µM [%]	pIC50	SMILES
76.9	79.4	> 7.30	C/C(Nc1cc(C)n(C(C)C)n1)=C1/C(=O)Nc2cnc(-c3cnccc3C)cc21 [Example 211, (Z)-3-(1-((1-Isopropyl-5-methyl-1H-pyrazol-3-yl)amino)ethylidene)-5-(4-methylpyridin-3-yl)-1H-pyrrolo[2,3-c]pyridin-2(3H)-one]
63.1	74.4	> 7.30	CCn1nc(N/C(C)=C2\C(=O)Nc3cnc(-c4c(C)cccc4F)cc32)cc1C [Example 212, (Z)-3-(1-((1-Ethyl-5-methyl-1H-pyrazol-3-yl)amino)ethylidene)-5-(2-fluoro-6-methylphenyl)-1H-pyrrolo[2,3-c]pyridin-2(3H)-one]
60.2	69.5	> 7.30	C/C(Nc1cc(C)n(CC(F)F)n1)=C1/C(=O)Nc2cnc(-c3cc(F)ccc3C)cc21 [Example 213, (Z)-3-(1-((1-(2,2-Difluoroethyl)-5-methyl-1H-pyrazol-3-yl)amino)ethylidene)-5-(5-fluoro-2-methylphenyl)-1H-pyrrolo[2,3-c]pyridin-2(3H)-one]
69.7	67.7	> 7.30	C/C(Nc1cc(C)n([C@@H](C)C#N)n1)=C1/C(=O)Nc2cnc(-c3cnccc3C)cc21 [Example 214, (S,Z)-2-(5-Methyl-3-((1-(5-(4-methylpyridin-3-yl)-2-oxo-1H-pyrrolo[2,3-c]pyridin-3(2H)-ylidene)ethyl)amino)-1H-pyrazol-1-yl)propanenitrile]
67.3	–	> 7.30	C/C(Nc1cc(C)n(C(F)F)n1)=C1/C(=O)Nc2cnc(-c3cc(F)ccc3C)cc21 [Example 215, (Z)-3-(1-((1-(Difluoromethyl)-5-methyl-1H-pyrazol-3-yl)amino)ethylidene)-5-(5-fluoro-2-methylphenyl)-1H-pyrrolo[2,3-c]pyridin-2(3H)-one]
72.1	68.6	> 7.30	C/C(Nc1cc(C)n(C[C@@H](C)O)n1)=C1/C(=O)Nc2cnc(-c3c(C)cccc3F)cc21 [Example 216, (R,Z)-5-(2-Fluoro-6-methylphenyl)-3-(1-((1-(2-hydroxypropyl)-5-methyl-1H-pyrazol-3-yl)amino)ethylidene)-1H-pyrrolo[2,3-c]pyridin-2(3H)-one]
77.7	–	> 7.30	C/C(Nc1cc2n(n1)CCOC2)=C1/C(=O)Nc2cnc(-c3cc(F)ccc3C)cc21 [Example 218, (Z)-3-(1-((6,7-Dihydro-4H-pyrazolo[5,1-c][1,4]oxazin-2-yl)amino)ethylidene)-5-(5-fluoro-2-methylphenyl)-1H-pyrrolo[2,3-c]pyridin-2(3H)-one]

Further lines, the molecule ahead of its results:

SMILES	inhibition at 1 µM [%]	inhibition at 10 µM [%]	pIC50
C/C(Nc1cc(C)n(CC(C)C)n1)=C1/C(=O)Nc2cnc(-c3c(C)cccc3F)cc21 [Example 202, (Z)-5-(2-Fluoro-6-methylphenyl)-3-(1-((1-isobutyl-5-methyl-1H-pyrazol-3-yl)amino)ethylidene)-1H-pyrrolo[2,3-c]pyridin-2(3H)-one]	75.7	61	> 7.30
C/C(Nc1cc(C)n(CCC(C)(C)O)n1)=C1/C(=O)Nc2cnc(-c3c(C)cccc3F)cc21 [Example 203, (Z)-5-(2-Fluoro-6-methylphenyl)-3-(1-((1-(3-hydroxy-3-methylbutyl)-5-methyl-1H-pyrazol-3-yl)amino)ethylidene)-1H-pyrrolo[2,3-c]pyridin-2(3H)-one]	67.6	83	> 7.30
C/C(Nc1cc(C)n(CCC(C)C)n1)=C1/C(=O)Nc2cnc(-c3cnccc3C)cc21 [Example 204, (Z)-3-(1-((1-Isopentyl-5-methyl-1H-pyrazol-3-yl)amino)ethylidene)-5-(4-methylpyridin-3-yl)-1H-pyrrolo[2,3-c]pyridin-2(3H)-one]	72.7	86.1	> 7.30
C/C(Nc1ncc(C)s1)=C1/C(=O)Nc2cnc(-c3c(C)cccc3F)cc21 [Example 205, (Z)-5-(2-Fluoro-6-methylphenyl)-3-(1-((5-methylthiazol-2-yl)amino)ethylidene)-1H-pyrrolo[2,3-c]pyridin-2(3H)-one]	73.3	–	> 7.30
C/C(Nc1cc2n(n1)CC(=O)N(C(C)C)C2)=C1/C(=O)Nc2cnc(-c3c(C)cccc3F)cc21 [Example 206, (Z)-2-((1-(5-(2-Fluoro-6-methylphenyl)-2-oxo-1H-pyrrolo[2,3-c]pyridin-3(2H)-ylidene)ethyl)amino)-5-isopropyl-4,5-dihydropyrazolo[1,5-a]pyrazin-6(7H)-one]	72.4	84.9	> 7.30
C/C(Nc1cc(C)n(C(C)(C)C#N)n1)=C1/C(=O)Nc2cnc(-c3c(C)cccc3F)cc21 [Example 207, (Z)-2-(3-((1-(5-(2-Fluoro-6-methylphenyl)-2-oxo-1H-pyrrolo[2,3-c]pyridin-3(2H)-ylidene)ethyl)amino)-5-methyl-1H-pyrazol-1-yl)-2-methylpropanenitrile]	73.8	–	> 7.30
C/C(Nc1cc(C)n([C@@H](C)C#N)n1)=C1/C(=O)Nc2cnc(-c3c(C)cccc3F)cc21 [Example 208, (S,Z)-2-(3-((1-(5-(2-Fluoro-6-methylphenyl)-2-oxo-1H-pyrrolo[2,3-c]pyridin-3(2H)-ylidene)ethyl)amino)-5-methyl-1H-pyrazol-1-yl)propanenitrile]	79.7	–	> 7.30
C/C(Nc1cc(C)n(C[C@H](C)O)n1)=C1/C(=O)Nc2cnc(-c3c(C)cccc3F)cc21 [Example 209, (S,Z)-5-(2-Fluoro-6-methylphenyl)-3-(1-((1-(2-hydroxypropyl)-5-methyl-1H-pyrazol-3-yl)amino)ethylidene)-1H-pyrrolo[2,3-c]pyridin-2(3H)-one]	75.7	78.9	> 7.30
C/C(Nc1cc(C)n(C)n1)=C1/C(=O)Nc2cnc(-c3cc(F)ccc3C)cc21 [Example 210, (Z)-3-(1-((1,5-Dimethyl-1H-pyrazol-3-yl)amino)ethylidene)-5-(5-fluoro-2-methylphenyl)-1H-pyrrolo[2,3-c]pyridin-2(3H)-one]	70.8	–	> 7.30
